Measured values: patent publication US20170334899A1, “AMINO-SUBSTITUTED ISOTHIAZOLES” (Bayer Pharma Aktiengesellschaft, priority 2014, published 2017)
Like-named read-outs stand apart in the source and are kept apart here.

Experiments:
CDK2/CycE = biological target: T1, CDK2/CycE (Homo sapiens, UniProt P24941); experiment: CDK2/CycE kinase assay (TR-FRET); format: biochemical; settings: avg, read-out: CDK2 avg (IC50 [mol/l])
T1 construct: GST; purchased ProQinase GmbH (Freiburg, Germany); host or cells: insect cells (Sf9)
From the text: CDK2/CycE -inhibitory activity of compounds of the present invention was quantified employing the CDK2/CycE TR-FRET assay as described in the following paragraphs.
Recombinant fusion proteins of GST and human CDK2 and of GST and human CycE, expressed in insect cells (Sf9) and purified by Glutathion-Sepharose affinity chromatography, were purchased from ProQinase GmbH (Freiburg, Germany). As substrate for the kinase reaction biotinylated peptide biotin-Ttds-YISPLKSPYKISEG (C-terminus in amid form) was used which can be purchased e.g. form the company JERINI peptide technologies (Berlin, Germany).
For the assay 50 nl of a 100fold concentrated solution of the test compound in DMSO was pipetted into a black low volume 384we11 microtiter plate (Greiner Bio-One, Frickenhausen, Germany), 2 μl of a solution of CDK2/CycE in aqueous assay buffer [50 mM Tris/HCl pH 8.0, 10 mM MgCl2, 1.0 mM dithiothreitol, 0.1 mM sodium ortho-vanadate, 0.01% (v/v) Nonidet-P40 (Sigma)] were added and the mixture was incubated for 15 min at 22° C. to allow pre-binding of the test compounds to the enzyme before the start of the kinase reaction. Then the kinase reaction was started by the addition of 3 μl of a solution of adenosine-tri-phosphate (ATP, 16.7 μM=>final conc. in the 5 μl assay volume is 10 μM) and substrate (1.25 μM=>final conc. in the 5 μl assay volume is 0.75 μM) in assay buffer and the resulting mixture was incubated for a reaction time of 25 min at 22° C. The concentration of CDK2/CycE was adjusted depending of the activity of the enzyme lot and was chosen appropriate to have the assay in the linear range, typical concentrations were in the range of 130 ng/ml. The reaction was stopped by the addition of 5 μl of a solution of TR-FRET detection reagents (0.2 μM streptavidine-XL665 [Cisbio Bioassays, Codolet, France] and 1 nM anti-RB(pSer807/pSer811)-antibody from BD Pharmingen [#558389] and 1.2 nM LANCE EU-W1024 labeled anti-mouse IgG antibody [Perkin-Elmer, product no. AD0077, as an alternative a Terbium-cryptate-labeled anti-mouse IgG antibody from Cisbio Bioassays can be used]) in an aqueous EDTA-solution (100 mM EDTA, 0.2% (w/v) bovine serum albumin in 100 mM HEPES/NaOH pH 7.0).
The resulting mixture was incubated 1 h at 22° C. to allow the formation of complex between the phosphorylated biotinylated peptide and the detection reagents. Subsequently the amount of phosphorylated substrate was evaluated by measurement of the resonance energy transfer from the Eu-chelate to the streptavidine-XL. Therefore, the fluorescence emissions at 620 nm and 665 nm after excitation at 350 nm was measured in a TR-FRET reader, e.g. a Rubystar (BMG Labtechnologies, Offenburg, Germany) or a Viewlux (Perkin-Elmer). The ratio of the emissions at 665 nm and at […] was taken as the measure for the amount of phosphorylated substrate. The data were normalised (enzyme reaction without inhibitor=0% inhibition, all other assay components but no enzyme=100% inhibition).

[1] = system: human cervical tumor cell line HeLa (ATCC CCL-2); experiment: SAC-Formation - Paclitaxel-Induced Assay; format: cell-based; settings: 24 h, HeLa cells, paclitaxel 0.05 μM, test range 0.005 μM-20 μM, read-out: IC50 [mol/l] SAC-Formation - Paclitaxel-Induced Assay
Summary of the method: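 Read-out is high-content imaging of anti-phospho-H3 Ser10 (mitosis) and Hoechst 33342 (DNA, cell number), with decreased mitotic fraction marking checkpoint breakthrough. Compounds (0.005–20 μM) and 0.05 μM paclitaxel co-added to overnight-plated HeLa for 24 h at 37° C; four-parameter Hill fit.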

| Compound | IC50 (CDK2/CycE) | IC50 ([1]; Homo sapiens, HeLa) | IC50 [1] |
| --- | --- | --- | --- |
| Cc1nsc(Nc2cnc(C(F)(F)F)cn2)c1C(=O)Nc1ccc(OC2CCNCC2)nc1 [Example 6, 3-Methyl-N-[6-(piperidin-4-yloxy)pyridin-3-yl]-5-{[5-(trifluoromethyl)pyrazin-2-yl]amino}-1,2-thiazole-4-carboxamide] | ≥ 20 µM | 19000 nM |  |
| Cc1nsc(Nc2cnc(C(F)(F)F)cn2)c1C(=O)Nc1ccc(OC2CCN(CC(F)F)CC2)nc1 [Example 8, N-(6-{[1-(2,2-Difluoroethyl)piperidin-4-yl]oxy}pyridin-3-yl)-3-methyl-5-{[5-(trifluoromethyl)pyrazin-2-yl]amino}-1,2-thiazole-4-carboxamide] | ≥ 20 µM | 1500 nM |  |
| Cc1nsc(Nc2cnc(C(F)(F)F)cn2)c1C(=O)Nc1ccc(OC2CCN(CC(F)(F)F)CC2)nc1 [Example 9, -Methyl-N-(6-{[1-(2,2,2-trifluoroethyl)piperidin-4-yl]oxy}pyridin-3-yl)-5-{[5-(trifluoromethyl)pyrazin-2-yl]amino}-1,2-thiazole-4-carboxamide] | ≥ 20 µM | 360 nM |  |
| Cc1nsc(Nc2cnc(C(F)(F)F)cn2)c1C(=O)Nc1ccc(OC2CCN(CCC(F)(F)F)CC2)nc1 [Example 10, 3-Methyl-5-{[5-(trifluoromethyl)pyrazin-2-yl]amino}-N-(6-{[1-(3,3,3-trifluoropropyl)-piperidin-4-yl]oxy}pyridin-3-yl)-1,2-thiazole-4-carboxamide] | ≥ 20 µM |  | 340 nM |
| CC(=O)N1CCC(Oc2ccc(NC(=O)c3c(C)nsc3Nc3cnc(C(F)(F)F)cn3)cn2)CC1 [Example 11, N-{6-[(1-Acetylpiperidin-4-yl)oxy]pyridin-3-yl}-3-methyl-5-{[5-(trifluoromethyl)-pyrazin-2-yl]amino}-1,2-thiazole-4-carboxamide] | ≥ 20 µM | 150 nM |  |
| Cc1nsc(Nc2cncc(C(F)(F)F)n2)c1C(=O)Nc1ccc(OC2CCN(C(=O)OC(C)(C)C)CC2)nc1 [Example 12, tert-Butyl 4-[(5-{[(3-methyl-5-{[6-(trifluoromethyl)pyrazin-2-yl]amino}-1,2-thiazol-4-yl)carbonyl]amino}pyridin-2-yl)oxy]piperidine-1-carboxylate] | ≥ 20 µM | 230 nM |  |
| Cc1nsc(Nc2cnc(C(F)(F)F)cn2)c1C(=O)Nc1ccc(C(=O)O)cc1 [Example 97, 4-{[(3-Methyl-5-{[5-(trifluoromethyl)pyrazin-2-yl]amino}-1,2-thiazol-4-yl)carbony]-amino}benzoic acid] | ≥ 20 µM | 20000 nM |  |
| Cc1nsc(Nc2ccc(C#N)cn2)c1C(=O)Nc1ccc(C(=O)OC(C)(C)C)cc1 [Example 98, tert-Butyl 4-[({5-[(5-cyanopyridin-2-yl)amino]-3-methyl-1,2-thiazol-4-yl}carbonyl)-amino]benzoate] | ≥ 20 µM | 7.9 nM |  |
| Cc1nsc(Nc2cnc3ccccc3n2)c1C(=O)Nc1cccc(C(=O)NCC(=O)O)c1 [Example 99, N-[3-({[3-Methyl-5-(quinoxalin-2-ylamino)-1,2-thiazol-4-yl]carbonyl}amino)benzoy]-glycine] | ≥ 20 µM | 20000 nM |  |
| COC(=O)CNC(=O)c1cccc(NC(=O)c2c(C)nsc2Nc2cnc3ccccc3n2)c1 [Example 100, Methyl N-[3-({[3-methyl-5-(quinoxalin-2-ylamino)-1,2-thiazol-4-yl]carbonyl}amino)-benzoyl]glycinate] | ≥ 20 µM | 20000 nM |  |
| Cc1nsc(Nc2cnc3ccccc3n2)c1C(=O)Nc1cccc(C(=O)N2CCN(C)CC2)c1 [Example 102, 3-Methyl-N-{3-[(4-methylpiperazin-1-yl)carbonyl]phenyl}-5-(quinoxalin-2-ylamino)-1,2-thiazole-4-carboxamide] | ≥ 20 µM | 7500 nM |  |
| Cc1nsc(Nc2cnc(C(F)(F)F)cn2)c1C(=O)Nc1ccc(OC[C@H]2CCN(CC(F)F)C2)nc1 [Example 132, N-(6-{[(3S)-1-(2,2-difluoroethyl)pyrrolidin-3-yl]methoxy}pyridin-3-yl)-3-methyl-5-{[5-(trifluoromethyl)pyrazin-2-yl]amino}-1,2-thiazole-4-carboxamide] | > 20 µM |  |  |
| Cc1nsc(Nc2cnc(C(F)(F)F)cn2)c1C(=O)Nc1ccc(OC[C@H]2CCN(CCC(F)(F)F)C2)nc1 [Example 134, 3-Methyl-5-{[5-(trifluoromethyl)pyrazin-2-yl]amino}-N-(6-{[(3S)-1-(3,3,3-trifluoropropyl)pyrrolidin-3-yl]methoxy}pyridin-3-yl)-1,2-thiazole-4-carboxamide] | > 20 µM |  |  |
| Cc1nsc(Nc2cnc(C(F)(F)F)cn2)c1C(=O)Nc1ccc(O[C@@H]2CCN(CC(F)(F)F)C2)nc1 [Example 421, 3-Methyl-N-(6-{[(3R)-1-(2,2,2-trifluoroethyl)pyrrolidin-3-yl]oxy}pyridin-3-yl)-5-{[5-(trifluoromethyl)pyrazin-2-yl]amino}-1,2-thiazole-4-carboxamide] |  |  | 330 nM |
| Cc1nsc(Nc2cnc(C(F)(F)F)cn2)c1C(=O)Nc1ccc(O[C@@H]2CCN(CCC(F)(F)F)C2)nc1 [Example 423, 3-Methyl-5-{[5-(trifluoromethyl)pyrazin-2-yl]amino}-N-(6-{[(3R)-1-(3,3,3-trifluoropropyl)pyrrolidin-3-yl]oxy}pyridin-3-yl)-1,2-thiazole-4-carboxamide] |  |  | 140 nM |

Second part, the compound after the results:

| IC50 (CDK2/CycE) | IC50 ([1]; Homo sapiens, HeLa) | IC50 [1] | Compound |
| --- | --- | --- | --- |
| > 20 µM |  |  | Cc1nsc(Nc2cnc(C(F)(F)F)cn2)c1C(=O)Nc1ccc(OC[C@H]2CCN(CC(F)(F)F)C2)nc1 (racemic) [Example 133, 3-Methyl-N-(6-{[(SR)-1-(2,2,2-trifluoroethyl)pyrrolidin-3-yl]methoxy}pyridin-3-yl)-5-{[5-(trifluoromethyl)pyrazin-2-yl]amino}-1,2-thiazole-4-carboxamide] |
| ≥ 20 µM | 770 nM |  | Cc1nsc(Nc2cnc(C(F)(F)F)cn2)c1C(=O)Nc1ccc(OC2CCN(CCF)CC2)nc1 [Example 7, N-(6-{[1-(2-Fluoroethyl)piperidin-4-yl]oxy}pyridin-3-yl)-3-methyl-5-{[5-(trifluoromethyl)pyrazin-2-yl]amino}-1,2-thiazole-4-carboxamide] |
| ≥ 20 µM | 39 nM |  | Cc1nsc(Nc2cnc(C(F)(F)F)cn2)c1C(=O)Nc1ccc(C(=O)OC(C)(C)C)cc1 [Example 96, tert-Butyl 4-{[(3-methyl-5-{[5-(trifluoromethyl)pyrazin-2-yl]amino}-1,2-thiazol-4-yl)carbonyl]amino}benzoate] |
| ≥ 20 µM | 20000 nM |  | Cc1nsc(Nc2cnc3ccccc3n2)c1C(=O)Nc1cccc(C(=O)N2CCNCC2)c1 [Example 101, 3-Methyl-N-[3-(piperazin-1-ylcarbonyl)phenyl]-5-(quinoxalin-2-ylamino)-1,2-thiazole-4-carboxamide] |
|  | 43 nM |  | Cc1nsc(Nc2cnc(C(F)(F)F)cn2)c1C(=O)Nc1ccc(OCC2CCN(CCF)C2)nc1 (centres unmarked) [Example 121, N-(6-{[1-(2-fluoroethyl)pyrrolidin-3-yl]methoxy}pyridin-3-yl)-3-methyl-5-{[5-(trifluoromethyl)pyrazin-2-yl]amino}-1,2-thiazole-4-carboxamide] |
|  |  | 88 nM | Cc1nsc(Nc2cnc(C(F)(F)F)cn2)c1C(=O)Nc1ccc(OC[C@@H]2CCCN(CCC(F)(F)F)C2)nc1 [Example 422, 3-Methyl-5-{[5-(trifluoromethyl)pyrazin-2-yl]amino}-N-(6-{[(3R)-1-(3,3,3-trifluoropropyl)piperidin-3-yl]methoxy}pyridin-3-yl)-1,2-thiazole-4-carboxamide] |
